Results taken from US8207090B2, “Process for the anti-germination and/or biocide treatment of bulbs or tubers by means of CIPC and a terpene or terpene oil” (Xeda International, priority 2005, dated 2012).

Key:
[1] = Solubility of CIPC in solvents / terpenes; format: physicochemical; details: with terpenes/terpene oils, at ambient temperature and as low as 0° C.
Experimental: Furthermore, CIPC dissolves with difficulty in conventional solvents, and maximum CIPC concentrations of approximately 30% (weight/volume) are generally obtained. At best, concentrations of approximately 54% at […] have been obtained. This low solubility entails the use of large amounts of solvent and/or formulation in order to obtain the required amounts of active ingredient. Nevertheless, efforts are generally made to limit the use of these solvents owing to their inherent toxicity and/or the danger of use that they entail, especially as a result of their low boiling points, which result in high risks of flammability.
It has now been discovered, and this is one of the subjects of the present invention, that terpenes and/or terpene oils, in particular eugenol, isoeugenol or clove oil, have a high capacity to dissolve CIPC, even in cases in which the two agents are applied separately. In particular, the use of terpenes and/or terpene oils of this type, applied before or after the CIPC, allows improved distribution of the CIPC on the potatoes. The separate application of the terpene or terpene oil therefore allows improved application, and accordingly penetration and efficacy, of the CIPC. […]

[2] = in conventional solvents, cited from earlier work
potatoes = details: cited from earlier work; for Inhibition of tuber sprouts: in combination with CIPC

SMILES: CC(C)OC(=O)Nc1cccc(Cl)c1 [CIPC, 3-chlorophenylisopropylcarbamate]
- CIPC concentration [1]: greater than 50 % by weight of CIPC relative to the total volume of the solution
- CIPC concentration, at best ([2]; at 180° C.): approximately 54%
- Maximum CIPC concentration [2]: approximately 30 % (weight/volume)

SMILES: C=C(C)C1CC=C(C)C(=O)C1 (stereo not drawn) [carvone]
- Treated batches of potatoes suitable for sale (potatoes; dosage of 16.6 ppm, agent on its own): 0%

SMILES: CC/C=C\CC1=C(C)CCC1=O [jasmone]
- Inhibition of tuber sprouts (potatoes): does not produce positive results

SMILES: C=C(C)[C@H]1CC=C(C)CC1 [limonene]
- Inhibition of tuber sprouts (potatoes): does not produce positive results
